Among the test systems are A549 NSCLC; SK-OV-3 ovarian; CAKI-1 renal; OVCAR-3 ovarian; COLO 205 colon; SF-268 CNS; LOX IMVI melanoma; SNB-19 CNS; HCT-116 colon; HCT-15 colon; ACHN renal; U251 CNS; OVCAR-8 ovarian; HOP-92 NSCLC; EKVX NSCLC; RXF 393 renal.
Assay in all cases: NCI anticancer screen, dose series, 48 h

Structures are written as SMILES.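 Five concentrations, 48 hours, 96-well plates. TGI: total growth inhibition.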 Some results are limits rather than exact numbers.

As to `CCOP(=O)(C=C=C(C)C)OCC`, the TGI in the test with A549 NSCLC, in the test with SK-OV-3 ovarian, in the test on CAKI-1 renal, in the test with OVCAR-3 ovarian, with COLO 205 colon and in the test with SF-268 CNS was more than 100 µM each time. Moreover, the TGI with LOX IMVI melanoma, with SNB-19 CNS, in the test with HCT-116 colon, in the test on HCT-15 colon, with ACHN renal and in the test with U251 CNS was more than 100 µM each time. In addition, the TGI in the test with OVCAR-8 ovarian, in the test on HOP-92 NSCLC, in the test with EKVX NSCLC and in the test on RXF 393 renal was more than 100 µM in each case.
On to `COc1cc([C@@H]2c3[nH]c4ccccc4c3C(Nc3ccc([N+](=O)[O-])cc3)[C@H]3COC(=O)N23)cc(OC)c1O` (some centres undefined), for which the TGI in the test with A549 NSCLC turned out to be 0.95 µM; in the test with SK-OV-3 ovarian it was 2.31 µM; in the test with CAKI-1 renal it was 2.11 µM; in the test on OVCAR-3 ovarian, 1.98 µM; with COLO 205 colon, 2.86 µM; with SF-268 CNS, 5.35 µM. Further, the TGI in the test on LOX IMVI melanoma came out at 0.297 µM; in the test with SNB-19 CNS, 0.698 µM; with HCT-116 colon it was 1.42 µM; in the test on HCT-15 colon it was 29.2 µM; with ACHN renal it was 0.659 µM; in the test on U251 CNS it was 1.4 µM. The TGI in the test with OVCAR-8 ovarian worked out at 0.86 µM; in the test on HOP-92 NSCLC, 1.96 µM; in the test on EKVX NSCLC it was 17 µM; with RXF 393 renal it was 1.04 µM.
Turning to `COC(=O)C1(Cc2ccccc2)Cc2ccc3c(c2C1=O)CCC3` (centres undefined), the TGI with A549 NSCLC is more than 100 µM; in the test on SK-OV-3 ovarian, more than 100 µM; in the test on CAKI-1 renal, more than 100 µM; with OVCAR-3 ovarian it was more than 100 µM; in the test on COLO 205 colon, more than 62.5 µM; in the test with SF-268 CNS, more than 100 µM. In addition, the TGI is more than 64 µM with LOX IMVI melanoma; more than 100 µM with SNB-19 CNS; more than 100 µM in the test on HCT-116 colon; more than 100 µM in the test on HCT-15 colon; more than 100 µM in the test on ACHN renal; more than 100 µM with U251 CNS. Besides, the TGI is more than 100 µM with OVCAR-8 ovarian, more than 73 µM in the test with HOP-92 NSCLC, more than 75.2 µM with EKVX NSCLC and more than 69.5 µM in the test on RXF 393 renal.
Turning to `CC(=O)OCC1OC(n2c(N)c(C#N)c(-c3ccc(C)cc3)c(C#N)c2=S)C(OC(C)=O)C(OC(C)=O)C1OC(C)=O` (centres undefined), the TGI with A549 NSCLC was 29.5 µM; with SK-OV-3 ovarian it was 66.5 µM; in the test with CAKI-1 renal it was more than 100 µM; with OVCAR-3 ovarian, more than 100 µM; with COLO 205 colon it was 29.4 µM; in the test on SF-268 CNS, 28.5 µM. In addition, the TGI with LOX IMVI melanoma was more than 100 µM; in the test with SNB-19 CNS it was 34.8 µM; in the test with HCT-116 colon it was more than 100 µM; in the test with HCT-15 colon, more than 100 µM; in the test with ACHN renal, more than 100 µM; in the test with U251 CNS, 30.6 µM. For the same compound, the TGI in the test on OVCAR-8 ovarian was determined as 28.5 µM; in the test with HOP-92 NSCLC, 28.5 µM; with EKVX NSCLC, 34.7 µM; in the test on RXF 393 renal it was 32.7 µM.

(Values after PubChem BioAssay (NCI).)
